Test results reported in the supplement of paper PMC8967900.

System: KASUMI-10
Assay: selective drug sensitivity score (sDSS, relative to normal bone marrow) (sDSS (score)); higher = more potent and effective on the cell line relative to normal bone marrow cells
Conditions: 72 h
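Note: ALL cell lines in 384-well plates, five doses spanning 10,000-fold, each plate scaled between vehicle and 100 µmol/L benzalkonium chloride controls, sDSS an adapted area-under-curve metric.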

Structure (SMILES)	selective drug sensitivity score
CCCCCOC(=O)Nc1nc(=O)n([C@@H]2O[C@H](C)[C@@H](O)[C@H]2O)cc1F [Capecitabine] (top concentration 10000 nM)	-0.06
Nc1nc(Cl)nc2c1ncn2[C@H]1C[C@H](O)[C@@H](CO)O1 [Cladribine] (top concentration 1000 nM)	5.26
CCN(CC)CCOc1ccc(/C(=C(/Cl)c2ccccc2)c2ccccc2)cc1 [Clomifene] (top concentration 10000 nM)	-1.78
CO[C@@H](C(=O)N1Cc2[nH]nc(NC(=O)c3ccc(N4CCN(C)CC4)cc3)c2C1)c1ccccc1 [Danusertib] (top concentration 10000 nM)	13.8
CC[C@@](C)(Nc1ccnc(-c2c[nH]c3ncccc23)n1)C(=O)NCC(F)(F)F [Decernotinib] (top concentration 10000 nM)	-3.84
CN1CCN(c2ccc3nc(-c4c(N)c5c(F)cccc5[nH]c4=O)[nH]c3c2)CC1 [Dovitinib] (top concentration 10000 nM)	6.46
CC(C)(O)CNc1nc(Nc2ccnc(C(F)(F)F)c2)nc(-c2cccc(C(F)(F)F)n2)n1 [Enasidenib] (top concentration 10000 nM)	-0.8
CN1CCN(c2ccc(C(=O)Nc3n[nH]c4ccc(Cc5cc(F)cc(F)c5)cc34)c(NC3CCOCC3)c2)CC1 [Entrectinib] (top concentration 1000 nM)	3.2
CNC(=O)c1ccc(N2C(=S)N(c3ccc(C#N)c(C(F)(F)F)c3)C(=O)C2(C)C)cc1F [Enzalutamide] (top concentration 10000 nM)	-0.82
Cn1cc(C2=C(c3cn(C4CCN(Cc5ccccn5)CC4)c4ccccc34)C(=O)NC2=O)c2ccccc21 [Enzastaurin] (top concentration 10000 nM)	4.56
NS(=O)(=O)NCCNc1nonc1/C(=N/O)Nc1ccc(F)c(Br)c1 [Epacadostat] (top concentration 10000 nM)	-0.06
CCOc1ccccc1-n1c(C(C)N2CCN(C(=O)COc3ccc(Cl)cc3)CC2)nc2ccccc2c1=O (stereo not given) [Erastin] (top concentration 10000 nM)	-4.36
COc1cc(OC)cc(N(CCNC(C)C)c2ccc3ncc(-c4cnn(C)c4)nc3c2)c1 [Erdafitinib] (top concentration 1000 nM)	-0.06
CC(C)(C)NC(=O)[C@H]1CC[C@H]2[C@@H]3CC[C@H]4NC(=O)C=C[C@]4(C)[C@H]3CC[C@]12C [Finasteride] (top concentration 10000 nM)	-0.42
O=c1[nH]c(=O)n([C@H]2C[C@H](O)[C@@H](CO)O2)cc1F [Floxuridine] (top concentration 10000 nM)	29.7
CNc1nc(Nc2cn(C(C)(C)C#N)nc2C)ncc1C(F)(F)F [GNE-0877] (top concentration 1000 nM)	0
CCCc1cc(C)[nH]c(=O)c1CNC(=O)c1cc(-c2ccnc(N3CCN(C)CC3)c2)cc2c1cnn2C(C)C [GSK343] (top concentration 1000 nM)	0
O=C(O)c1ccc(O)c2ncccc12 [IOX-1] (top concentration 100000 nM)	1.54

System: MN-60
Assay: as above
Conditions: 72 h

Structure (SMILES)	selective drug sensitivity score
CCCCCOC(=O)Nc1nc(=O)n([C@@H]2O[C@H](C)[C@@H](O)[C@H]2O)cc1F [Capecitabine] (top concentration 10000 nM)	-0.06
Nc1nc(Cl)nc2c1ncn2[C@H]1C[C@H](O)[C@@H](CO)O1 [Cladribine] (top concentration 1000 nM)	-6.44
CCN(CC)CCOc1ccc(/C(=C(/Cl)c2ccccc2)c2ccccc2)cc1 [Clomifene] (top concentration 10000 nM)	-0.18
CO[C@@H](C(=O)N1Cc2[nH]nc(NC(=O)c3ccc(N4CCN(C)CC4)cc3)c2C1)c1ccccc1 [Danusertib] (top concentration 10000 nM)	-0.36
CC[C@@](C)(Nc1ccnc(-c2c[nH]c3ncccc23)n1)C(=O)NCC(F)(F)F [Decernotinib] (top concentration 10000 nM)	-3.94
CN1CCN(c2ccc3nc(-c4c(N)c5c(F)cccc5[nH]c4=O)[nH]c3c2)CC1 [Dovitinib] (top concentration 10000 nM)	-0.14
CC(C)(O)CNc1nc(Nc2ccnc(C(F)(F)F)c2)nc(-c2cccc(C(F)(F)F)n2)n1 [Enasidenib] (top concentration 10000 nM)	-0.8
CN1CCN(c2ccc(C(=O)Nc3n[nH]c4ccc(Cc5cc(F)cc(F)c5)cc34)c(NC3CCOCC3)c2)CC1 [Entrectinib] (top concentration 1000 nM)	-1.2
CNC(=O)c1ccc(N2C(=S)N(c3ccc(C#N)c(C(F)(F)F)c3)C(=O)C2(C)C)cc1F [Enzalutamide] (top concentration 10000 nM)	-0.22
Cn1cc(C2=C(c3cn(C4CCN(Cc5ccccn5)CC4)c4ccccc34)C(=O)NC2=O)c2ccccc21 [Enzastaurin] (top concentration 10000 nM)	5.16
NS(=O)(=O)NCCNc1nonc1/C(=N/O)Nc1ccc(F)c(Br)c1 [Epacadostat] (top concentration 10000 nM)	1.44
CCOc1ccccc1-n1c(C(C)N2CCN(C(=O)COc3ccc(Cl)cc3)CC2)nc2ccccc2c1=O (stereo not given) [Erastin] (top concentration 10000 nM)	-6.86
COc1cc(OC)cc(N(CCNC(C)C)c2ccc3ncc(-c4cnn(C)c4)nc3c2)c1 [Erdafitinib] (top concentration 1000 nM)	-0.56
CC(C)(C)NC(=O)[C@H]1CC[C@H]2[C@@H]3CC[C@H]4NC(=O)C=C[C@]4(C)[C@H]3CC[C@]12C [Finasteride] (top concentration 10000 nM)	-0.52
O=c1[nH]c(=O)n([C@H]2C[C@H](O)[C@@H](CO)O2)cc1F [Floxuridine] (top concentration 10000 nM)	10.3
CNc1nc(Nc2cn(C(C)(C)C#N)nc2C)ncc1C(F)(F)F [GNE-0877] (top concentration 1000 nM)	0
CCCc1cc(C)[nH]c(=O)c1CNC(=O)c1cc(-c2ccnc(N3CCN(C)CC3)c2)cc2c1cnn2C(C)C [GSK343] (top concentration 1000 nM)	0
O=C(O)c1ccc(O)c2ncccc12 [IOX-1] (top concentration 100000 nM)	4.54

System: MOLT-16
Assay: as above
Conditions: 72 h

Structure (SMILES)	selective drug sensitivity score
CCCCCOC(=O)Nc1nc(=O)n([C@@H]2O[C@H](C)[C@@H](O)[C@H]2O)cc1F [Capecitabine] (top concentration 10000 nM)	-0.06
Nc1nc(Cl)nc2c1ncn2[C@H]1C[C@H](O)[C@@H](CO)O1 [Cladribine] (top concentration 1000 nM)	1.06
CCN(CC)CCOc1ccc(/C(=C(/Cl)c2ccccc2)c2ccccc2)cc1 [Clomifene] (top concentration 10000 nM)	0.92
CO[C@@H](C(=O)N1Cc2[nH]nc(NC(=O)c3ccc(N4CCN(C)CC4)cc3)c2C1)c1ccccc1 [Danusertib] (top concentration 10000 nM)	22.4
CC[C@@](C)(Nc1ccnc(-c2c[nH]c3ncccc23)n1)C(=O)NCC(F)(F)F [Decernotinib] (top concentration 10000 nM)	-3.94
CN1CCN(c2ccc3nc(-c4c(N)c5c(F)cccc5[nH]c4=O)[nH]c3c2)CC1 [Dovitinib] (top concentration 10000 nM)	-0.14
CC(C)(O)CNc1nc(Nc2ccnc(C(F)(F)F)c2)nc(-c2cccc(C(F)(F)F)n2)n1 [Enasidenib] (top concentration 10000 nM)	0.1
CN1CCN(c2ccc(C(=O)Nc3n[nH]c4ccc(Cc5cc(F)cc(F)c5)cc34)c(NC3CCOCC3)c2)CC1 [Entrectinib] (top concentration 1000 nM)	-1.2
CNC(=O)c1ccc(N2C(=S)N(c3ccc(C#N)c(C(F)(F)F)c3)C(=O)C2(C)C)cc1F [Enzalutamide] (top concentration 10000 nM)	1.48
